Measured values taken from patent publication US11724997B2, “Compounds and compositions for treating conditions associated with APJ receptor activity” (Annapurna Bio, Inc., priority 2018, dated 2023).

molecular target: T1, APJ Receptor (Homo sapiens, UniProt P35414); assay: APJ cAMP assay: inhibition of forskolin-stimulated cAMP, enzyme fragment complementation, in CHO-K1 cells stably expressing the APJ Receptor; type: cell-based; details: CHO-K1 cell line (DiscoverX) stably expressing APJ Receptor; EC80 forskolin; 30 minutes at 37° C.; read-out: APJ cAMP EC50 Potency range
T1 sequence (P35414 1-380): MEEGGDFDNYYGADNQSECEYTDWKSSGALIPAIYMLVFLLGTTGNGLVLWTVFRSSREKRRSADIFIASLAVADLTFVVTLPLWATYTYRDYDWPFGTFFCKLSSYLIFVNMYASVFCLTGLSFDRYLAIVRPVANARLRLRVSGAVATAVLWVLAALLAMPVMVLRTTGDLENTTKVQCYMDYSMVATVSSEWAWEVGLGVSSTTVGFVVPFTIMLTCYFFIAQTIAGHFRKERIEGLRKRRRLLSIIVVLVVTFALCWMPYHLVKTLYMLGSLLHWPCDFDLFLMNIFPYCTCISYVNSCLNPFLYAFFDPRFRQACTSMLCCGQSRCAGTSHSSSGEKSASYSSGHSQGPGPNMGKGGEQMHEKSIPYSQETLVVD
Text: Activation of APJ receptor is known to inhibit forskolin-stimulated cyclic AMP (cAMP) production in cells in a pertussis toxin-sensitive manner which indicates primary coupling to the GαI subunit of the G protein heterotrimeric complex. In addition to signaling through G protein and inhibition of cAMP, APJ receptor activation also results in β-arrestin recruitment, receptor internalization and activation of extracellular-regulated kinases (ERKs).
In order to optimize functional activity directed toward Gi coupling we utilized a CHO-K1 cell line developed by DiscoverX stably expressing the APJ Receptor. Cells expressing APJR receptor were plated in a 384-well microtiter plates and incubated overnight at 37° C. with 5% CO2 to allow the cells to attach and grow. Media was then aspirated from the cells and replaced with 15 uL 2:1 Hanks Balanced Salt Solution (HBSS)/10 mM Hepes. cAMP XS+ Ab reagent. Five microliters (5 uL) of previously generated compound sample stocks at 4× final concentration in assay buffer containing 4×EC80 forskolin were then added to the cells and allowed to incubate at 37° C. for 30 minutes.
After incubation the assay signal was generated using a technology termed enzyme fragment complementation (EFC). In EFC the enzyme B-galactosidase is split into two complementary portions (EA and ED). The fragment ED is fused to cAMP and in the assay format competes with endogenous cAMP for binding to a cAMP specific antibody. Activated B-Gal is formed when exogenous EA fragment binds to free ED-cAMP (not bound to cAMP specific antibody). Activated enzyme levels are detected through conversion of B-gal chemiluminescent substrate which generates a detectable luminescence signal and read on standard microtiter plate.
The methodology for detection of cAMP using EFC requires incubation with 20 uL of cAMP XS+ ED/CL lysis cocktail for one hour followed by incubation with 20 uL cAMP XS+ EA reagent for three hours at room temperature. Microplates were read following signal generation with a PerkinElmer Envision instrument utilizing chemiluminescent signal detection.
Compound activity was analyzed using CBIS data analysis suite (ChemInnovation, CA).
Percentage activity was calculated using the following formula: % Activity=[…]×(1−(mean RLU of test sample−mean RLU of Max control)/(mean RLU of vehicle control−mean RLU of Max control))
The biological activity of the exemplified compounds of this invention determined by the assay described above is shown in Table 1. The APJ cAMP EC50 potency ranges are as follows: A: EC50<1 nM; B: 1≤EC50<100 nM; and C: 100≤EC50<10,000 nM.

EC50	Compound
< 1 nM	COc1cccc(-c2nnc(C(=O)NS(=O)(=O)Cc3ncccn3)n2-c2c(OC)cccc2OC)n1 [Example 26, 4-(2,6-dimethoxyphenyl)-5-(6-methoxypyridin-2-yl)-N-((pyrimidin-2-ylmethyl)sulfonyl)-4H-1,2,4-triazole-3-carboxamide]
< 1 nM	CCOc1cccc(-c2nnc(C(=O)NS(=O)(=O)CCc3ccncc3)n2-c2c(OC)cccc2OC)n1 [Example 49, 4-(2,6-Dimethoxyphenyl)-5-(6-ethoxypyridin-2-yl)-N-((2-(pyridin-4-yl)ethyl)sulfonyl)-4H-1,2,4-triazole-3-carboxamide]
< 1 nM	CCOc1cccc(-c2nnc(C(=O)NS(=O)(=O)CCc3ccccn3)n2-c2c(OC)cccc2OC)n1 [Example 51, 4-(2,6-Dimethoxyphenyl)-5-(6-ethoxypyridin-2-yl)-N-((2-(pyridin-2-yl)ethyl)sulfonyl)-4H-1,2,4-triazole-3-carboxamide]
< 1 nM	CCOc1cccc(-c2nnc(C(=O)NS(=O)(=O)Cc3ncc(C)cn3)n2-c2c(OC)cccc2OC)n1 [Example 38, 4-(2,6-Dimethoxyphenyl)-5-(6-ethoxypyridin-2-yl)-N-(((5-methylpyrimidin-2-yl)methyl)sulfonyl)-4H-1,2,4-triazole-3-carboxamide]
< 1 nM	CCOc1cccc(-c2nnc(C(=O)NS(=O)(=O)Cc3ncc(F)cn3)n2-c2c(OC)cccc2OC)n1 [Example 42, 4-(2,6-Dimethoxyphenyl)-5-(6-ethoxypyridin-2-yl)-N-(((5-fluoropyrimidin-2-yl)methyl)sulfonyl)-4H-1,2,4-triazole-3-carboxamide]
< 1 nM	COc1cccc(-c2nnc(C(=O)NS(=O)(=O)Cc3ccc(F)cc3)n2-c2c(OC)cccc2OC)n1 [Example 31, 4-(2,6-Dimethoxyphenyl)-N-((4-fluorobenzyl)sulfonyl)-5-(6-methoxypyridin-2-yl)-4H-1,2,4-triazole-3-carboxamide]
1 to 100 nM	COc1cccc(-c2nnc(C(=O)NS(=O)(=O)Cc3ccccc3)n2-c2c(F)cccc2OC)n1 [Example 63, N-(benzylsulfonyl)-4-(2-fluoro-6-methoxyphenyl)-5-(6-methoxypyridin-2-yl)-4H-1,2,4-triazole-3-carboxamide]
1 to 100 nM	COc1cccc(-c2nnc(C(=O)NS(=O)(=O)Cc3cccc(F)c3)n2-c2c(OC)cccc2OC)n1 [Example 30, 4-(2,6-Dimethoxyphenyl)-N-((3-fluorobenzyl)sulfonyl)-5-(6-methoxypyridin-2-yl)-4H-1,2,4-triazole-3-carboxamide]
< 1 nM	CCOc1cccc(-c2nnc(C(=O)NS(=O)(=O)[C@H](C)c3ccccc3)n2-c2c(OC)cccc2OC)n1 (single isomer, unassigned) [Example 40]
< 1 nM	COc1cccc(-c2nnc(C(=O)NS(=O)(=O)CC3CCCCC3)n2-c2c(OC)cccc2OC)n1 [Example 34, N-((cyclohexylmethyl)sulfonyl)-4-(2,6-dimethoxyphenyl)-5-(6-methoxypyridin-2-yl)-4H-1,2,4-triazole-3-carboxamide]
1 to 100 nM	COc1cccc(OC)c1-n1c(C(=O)NS(=O)(=O)Cc2ncccn2)nnc1-c1cccc(OC(F)(F)F)n1 [Example 58, 4-(2,6-Dimethoxyphenyl)-N-((pyrimidin-2-ylmethyl)sulfonyl)-5-(6-(trifluoromethoxy)pyridin-2-yl)-4H-1,2,4-triazole-3-carboxamide]
< 1 nM	COc1cccc(OC)c1-n1c(C(=O)NS(=O)(=O)Cc2ncn(C)n2)nnc1-c1ccc(C)o1 [Example 55, 4-(2,6-Dimethoxyphenyl)-N-(((1-methyl-1H-1,2,4-triazol-3-yl)methyl)sulfonyl)-5-(5-methylfuran-2-yl)-4H-1,2,4-triazole-3-carboxamide]
< 1 nM	CCOc1cccc(-c2nnc(C(=O)NS(=O)(=O)C[C@H](C)c3ccccc3)n2-c2c(OC)cccc2OC)n1 (single isomer, unassigned) [Example 46]
< 1 nM	CCOc1cccc(-c2nnc(C(=O)NS(=O)(=O)Cc3ncc(Cl)cn3)n2-c2c(OC)cccc2OC)n1 [Example 43, N-(((5-chloropyrimidin-2-yl)methyl)sulfonyl)-4-(2,6-dimethoxyphenyl)-5-(6-ethoxypyridin-2-yl)-4H-1,2,4-triazole-3-carboxamide]

Continued, compound first:

Compound	EC50
COc1cccc(OC)c1-n1c(C(=O)NS(=O)(=O)Cc2ncc(C)cn2)nnc1-c1ccc(C)cn1 [Example 24, 4-(2,6-Dimethoxyphenyl)-5-(5-methylpyridin-2-yl)-N-(((5-methylpyrimidin-2-yl)methyl)sulfonyl)-4H-1,2,4-triazole-3-carboxamide]	100 to 10000 nM
COc1cccc(OC)c1-n1c(C(=O)NS(=O)(=O)Cc2ccccc2)nnc1-c1cccc(C)n1 [Example 14, N-(benzylsulfonyl)-4-(2,6-dimethoxyphenyl)-5-(6-methylpyridin-2-yl)-4H-1,2,4-triazole-3-carboxamide]	1 to 100 nM
COc1cccc(OC)c1-n1c(C(=O)NS(=O)(=O)Cc2ccccc2)nnc1-c1ccc(C)cn1 [Example 15, N-(benzylsulfonyl)-4-(2,6-dimethoxyphenyl)-5-(5-methylpyridin-2-yl)-4H-1,2,4-triazole-3-carboxamide]	1 to 100 nM
COc1cccc(OC)c1-n1c(C(=O)NS(=O)(=O)Cc2ccccc2)nnc1-c1cccc(OC2CC2)n1 [Example 19, N-(benzylsulfonyl)-5-(6-cyclopropoxypyridin-2-yl)-4-(2,6-dimethoxyphenyl)-4H-1,2,4-triazole-3-carboxamide]	< 1 nM
COc1cccc(OC)c1-n1c(C(=O)NS(=O)(=O)Cc2ncccn2)nnc1-c1ccc(F)c(OC)n1 [Example 23, 4-(2,6-Dimethoxyphenyl)-5-(5-fluoro-6-methoxypyridin-2-yl)-N-((pyrimidin-2-ylmethyl)sulfonyl)-4H-1,2,4-triazole-3-carboxamide]	100 to 10000 nM
COc1cccc(OC)c1-n1c(C(=O)NS(=O)(=O)Cc2ccccc2)nnc1-c1ccc(C)o1 [Example 16, N-(benzylsulfonyl)-4-(2,6-dimethoxyphenyl)-5-(5-methylfuran-2-yl)-4H-1,2,4-triazole-3-carboxamide]	1 to 100 nM
CCOc1cccc(-c2nnc(C(=O)NS(=O)(=O)CCc3ccccc3)n2-c2c(OC)cccc2OC)n1 [Example 3, 4-(2,6-dimethoxyphenyl)-5-(6-ethoxypyridin-2-yl)-N-(phenethylsulfonyl)-4H-1,2,4-triazole-3-carboxamide]	< 1 nM
CCOCc1nnc(C(=O)NS(=O)(=O)Cc2ccccc2)n1-c1c(OC)cccc1OC [Example 7, N-(benzylsulfonyl)-4-(2,6-dimethoxyphenyl)-5-(ethoxymethyl)-4H-1,2,4-triazole-3-carboxamide]	100 to 10000 nM
CCOc1cccc(-c2nnc(C(=O)NS(=O)(=O)c3ccccc3)n2-c2c(OC)cccc2OC)n1 [Example 1, 4-(2,6-dimethoxyphenyl)-5-(6-ethoxypyridin-2-yl)-N-(phenylsulfonyl)-4H-1,2,4-triazole-3-carboxamide]	< 1 nM
COc1cccc(OC)c1-n1c(C(=O)NS(=O)(=O)Cc2ccccc2)nnc1-c1cc(C2CC2)no1 [Example 11, N-(benzylsulfonyl)-5-(3-cyclopropylisoxazol-5-yl)-4-(2,6-dimethoxyphenyl)-4H-1,2,4-triazole-3-carboxamide]	100 to 10000 nM
COc1cccc(OC)c1-n1c(C(=O)NS(=O)(=O)Cc2ccccc2)nnc1-c1cccc(OC2CCC2)n1 [Example 18, N-(benzylsulfonyl)-5-(6-cyclobutoxypyridin-2-yl)-4-(2,6-dimethoxyphenyl)-4H-1,2,4-triazole-3-carboxamide]	1 to 100 nM
CCOc1cccc(-c2nnc(C(=O)N(C)S(=O)(=O)Cc3ccccc3)n2-c2c(OC)cccc2OC)n1 [Example 8, N-(benzylsulfonyl)-4-(2,6-dimethoxyphenyl)-5-(6-ethoxypyridin-2-yl)-N-methyl-4H-1,2,4-triazole-3-carboxamide]	1 to 100 nM
